Test results from the CheMixHub viscosity set.
Where “and” joins values, the source holds several entries; their conditions need not be identical. Identical values can stand only once. ± gives the uncertainty stated by the source.

Columns and labels:
[1] = xn = mol fraction of the nth substance listed

CCCC[N+]1(C)CCCC1.N#C[C-](C#N)C#N
101 kPa
Settings	viscosity [mPa·s]
308.15 K	20.56 ± 1.2
318.15 K	15.44 ± 0.94

S=C=S
Settings	viscosity
293.15 K, 101 kPa	0.36 ± 0.01 mPa·s and 0.365 ± 0.004 mPa·s
298.15 K, 101.33 kPa	0.4077 ± 0.017 mPa·s

CCC(=O)c1ccccc1
viscosity
Settings	303.15 K	313.15 K	318.15 K
100 kPa	1.51 ± 0.02 mPa·s	–	–
101 kPa	1.51 ± 0.02 mPa·s and 1.515 ± 0.063 mPa·s and 1.622 ± 0.037 mPa·s	1.423 ± 0.059 mPa·s and 1.449 ± 0.033 mPa·s	1.377 ± 0.057 mPa·s

CCOC(=O)CC(C)=O
100 kPa
Settings	viscosity [mPa·s]
293.15 K	1.656 ± 0.1
298.15 K	1.51 ± 0.091

CN1CCNCC1
101 kPa
Settings	viscosity [mPa·s]
298.15 K	1.87 ± 0.04
313.15 K	1.302 ± 0.028

CC(C)NC(C)C
viscosity
Settings	298.15 K	303.15 K	308.15 K
100 kPa	0.38 ± 0.02 mPa·s and 0.382 ± 0.012 mPa·s	0.36 ± 0.02 mPa·s and 0.364 ± 0.011 mPa·s	0.35 ± 0.02 mPa·s and 0.347 ± 0.011 mPa·s
101 kPa	0.382 ± 0.06 mPa·s	0.364 ± 0.06 mPa·s	0.347 ± 0.06 mPa·s and 0.3089 ± 0.01 mPa·s

C=C(C)C(=O)OCCCC
101 kPa
Settings	viscosity [mPa·s]
298.15 K	0.8768 ± 0.019
303.15 K	0.8077 ± 0.017
308.15 K	0.7483 ± 0.016
313.15 K	0.7012 ± 0.015
318.15 K	0.6639 ± 0.014

OCCO
Settings	viscosity
293.15 K, 101.3 kPa	21.4 ± 0.6 mPa·s and 21.62 ± 0.88 mPa·s
293.15 K, 101.32 kPa	19.2 ± 1.3 mPa·s
297.85 K, 101 kPa	17.7 ± 0.2 mPa·s
298.15 K, 100 kPa	17.7 ± 3.5 mPa·s and 17.87 ± 0.093 mPa·s
298.15 K, 101.3 kPa	16.1 ± 2 mPa·s
298.15 K, 101.33 kPa	15.31 ± 1.6 mPa·s
302.85 K, 101 kPa	14.4 ± 0.16 mPa·s
303 K, 101 kPa	15 ± 0.5 mPa·s
303.15 K, 101.33 kPa	12.24 ± 1.3 mPa·s
307.85 K, 101 kPa	11.92 ± 0.13 mPa·s
308.15 K, 100 kPa	11.07 ± 0.074 mPa·s
308.15 K, 101 kPa	10.97 ± 0.81 mPa·s and 12 ± 0.32 mPa·s and 11.66 ± 0.23 mPa·s
308.15 K, 101.33 kPa	9.945 ± 1.1 mPa·s
312.95 K, 101 kPa	9.95 ± 0.11 mPa·s
313.15 K, 101.3 kPa	9.53 ± 0.39 mPa·s
313.15 K, 101.32 kPa	8.45 ± 0.58 mPa·s
313.15 K, 101.33 kPa	9.17 ± 0.29 mPa·s and 9.535 ± 1 mPa·s
317.75 K, 101 kPa	8.44 ± 0.09 mPa·s
318.15 K, 100 kPa	9.59 ± 0.09 mPa·s and 7.888 ± 3 mPa·s and 8.126 ± 0.06 mPa·s
318.15 K, 101.3 kPa	8.08 ± 0.33 mPa·s
318.15 K, 101.33 kPa	7.68 ± 0.25 mPa·s
322.75 K, 101 kPa	7.19 ± 0.07 mPa·s
323.15 K, 101.3 kPa	6.96 ± 0.18 mPa·s and 6.91 ± 0.28 mPa·s

CCOC(=O)CCBr
Settings	viscosity [mPa·s]
303.15 K, 101 kPa	1.867 ± 0.011

CC[NH3+].O=[N+]([O-])[O-]
viscosity
Settings	293.15 K	298 K	298.15 K	303.15 K	308.15 K	313.15 K	318.15 K	323.15 K
100 kPa	40.61 ± 0.9 mPa·s	–	34.49 ± 0.77 mPa·s	29.65 ± 0.66 mPa·s	25.76 ± 0.58 mPa·s	22.67 ± 0.51 mPa·s	20.12 ± 0.46 mPa·s	–
101 kPa	43.5 mPa·s and 44.9 ± 1.2 mPa·s	37.51 ± 1.2 mPa·s	37.5 ± 1.6 mPa·s and 36.5 mPa·s	31 mPa·s	26.5 mPa·s	22.8 mPa·s	20 mPa·s	17.6 mPa·s

CC(CC(C)(C)C)CP(=O)([O-])CC(C)CC(C)(C)C.CCCCCCCC[P+](C)(C)C (configuration not stated)
101 kPa
Settings	viscosity [mPa·s]
298.15 K	804 ± 50
303.15 K	560 ± 32
308.15 K	408 ± 21
313.15 K	306 ± 15
318.15 K	227 ± 10
323.15 K	177 ± 7

CCCCCCCCCCCCCCCCCCCc1ccccc1
Settings	viscosity [mPa·s]
313.15 K, 101 kPa	8.33 ± 0.07

CCCCCCn1cc[n+](C)c1.[Cl-]
101 kPa
Settings	viscosity
293.15 K	11420 ± 1000 mPa·s
303.15 K	4206 ± 320 mPa·s
313.15 K	1718 ± 100 mPa·s
323.15 K	1879 ± 600 mPa·s and 783.4 ± 38 mPa·s

C=CCc1ccc(O)c(OC)c1
Settings	viscosity [mPa·s]
298.15 K, 101 kPa	6.93 ± 0.084

CC(=O)[O-].CC[NH2+]CC
101 kPa
Settings	viscosity
303.15 K	13.64 ± 0.28 mPa·s and 13.64 ± 0.35 mPa·s
308.15 K	11.83 ± 0.24 mPa·s and 11.83 ± 0.3 mPa·s
313.15 K	10.02 ± 0.21 mPa·s

NCc1ccccc1
viscosity [mPa·s]
Settings	303.15 K	313.15 K	323.15 K
100 kPa	1.497 ± 0.035	1.262 ± 0.03	1.071 ± 0.025
101 kPa	1.415 ± 0.03	–	–

C=CCN=C=S
viscosity [mPa·s]
Settings	298.15 K	303.15 K	313.15 K	323.15 K
100 kPa	–	–	0.592 ± 0.005	–
101 kPa	0.662 ± 0.018	0.671 ± 0.018	–	0.526 ± 0.014

O=CN1CCOCC1
viscosity
Settings	298.15 K	303.15 K	308.15 K	313.15 K	323.15 K
101 kPa	7.656 ± 0.15 mPa·s	6.626 ± 0.18 mPa·s and 6.598 ± 0.13 mPa·s	5.731 ± 0.16 mPa·s	5.141 ± 0.14 mPa·s and 5.068 ± 0.11 mPa·s	4.036 ± 0.089 mPa·s
101.3 kPa	7.613 ± 0.052 mPa·s	–	–	–	–

CCCC[N+]1(C)CCCCC1.N#C[S-]
Settings	viscosity [mPa·s]
318.15 K, 101 kPa	264.5 ± 59

CCCCCCCCCCCO
101.33 kPa
Settings	viscosity [mPa·s]
293.15 K	16.95 ± 0.39
298.15 K	13.83 ± 0.32

OCCO + CO
[1]
Settings	viscosity [mPa·s]
293.15 K, 101.33 kPa, x1 = 0.0476	0.724 ± 0.006
293.15 K, 101.33 kPa, x1 = 0.0598	0.766 ± 0.006
293.15 K, 101.33 kPa, x1 = 0.0918	0.914 ± 0.008
293.15 K, 101.33 kPa, x1 = 0.1023	0.918 ± 0.008
293.15 K, 101.33 kPa, x1 = 0.1742	1.243 ± 0.01
293.15 K, 101.33 kPa, x1 = 0.2098	1.409 ± 0.011
293.15 K, 101.33 kPa, x1 = 0.3191	2.142 ± 0.016
293.15 K, 101.33 kPa, x1 = 0.3538	2.413 ± 0.018
293.15 K, 101.33 kPa, x1 = 0.4072	2.906 ± 0.022
293.15 K, 101.33 kPa, x1 = 0.4225	3.085 ± 0.023
293.15 K, 101.33 kPa, x1 = 0.4474	3.338 ± 0.025
293.15 K, 101.33 kPa, x1 = 0.4889	3.824 ± 0.029
293.15 K, 101.33 kPa, x1 = 0.5955	5.485 ± 0.039
293.15 K, 101.33 kPa, x1 = 0.6932	7.481 ± 0.05
293.15 K, 101.33 kPa, x1 = 0.836	11.43 ± 0.072
293.15 K, 101.33 kPa, x1 = 0.859	12.3 ± 0.077
298.15 K, 101 kPa, x1 = 0.1	0.8363 ± 0.022
298.15 K, 101 kPa, x1 = 0.2	1.245 ± 0.033
298.15 K, 101 kPa, x1 = 0.2969	1.998 ± 0.016
298.15 K, 101 kPa, x1 = 0.3	1.795 ± 0.048
298.15 K, 101 kPa, x1 = 0.34	2.045 ± 0.017
298.15 K, 101 kPa, x1 = 0.4	2.562 ± 0.068
298.15 K, 101 kPa, x1 = 0.5	3.602 ± 0.097
298.15 K, 101 kPa, x1 = 0.6	5.022 ± 0.14
298.15 K, 101 kPa, x1 = 0.7	6.964 ± 0.19
298.15 K, 101 kPa, x1 = 0.8	9.561 ± 0.26
298.15 K, 101 kPa, x1 = 0.9	13.09 ± 0.36
308.15 K, 101 kPa, x1 = 0.1	0.7007 ± 0.019
308.15 K, 101 kPa, x1 = 0.2	1.011 ± 0.027
308.15 K, 101 kPa, x1 = 0.2969	1.634 ± 0.013
308.15 K, 101 kPa, x1 = 0.3	1.442 ± 0.038
308.15 K, 101 kPa, x1 = 0.4	2.032 ± 0.054
308.15 K, 101 kPa, x1 = 0.5	2.818 ± 0.075
308.15 K, 101 kPa, x1 = 0.6	3.883 ± 0.1
308.15 K, 101 kPa, x1 = 0.7	5.269 ± 0.14
308.15 K, 101 kPa, x1 = 0.8	6.952 ± 0.19
308.15 K, 101 kPa, x1 = 0.9	9.251 ± 0.25
318.15 K, 101 kPa, x1 = 0.1	0.6194 ± 0.016
318.15 K, 101 kPa, x1 = 0.2	0.8557 ± 0.023
318.15 K, 101 kPa, x1 = 0.2969	1.36 ± 0.011
318.15 K, 101 kPa, x1 = 0.3	1.172 ± 0.031
318.15 K, 101 kPa, x1 = 0.4	1.59 ± 0.042
318.15 K, 101 kPa, x1 = 0.5	2.134 ± 0.057
318.15 K, 101 kPa, x1 = 0.6	2.844 ± 0.077
318.15 K, 101 kPa, x1 = 0.7	3.783 ± 0.1
318.15 K, 101 kPa, x1 = 0.8	4.96 ± 0.13
318.15 K, 101 kPa, x1 = 0.9	6.432 ± 0.17

C=CCc1ccc(O)c(OC)c1 + CCCCCOC(C)=O
[1], 298.15 K, 101 kPa
Settings	viscosity [mPa·s]
x1 = 0.1	0.698 ± 0.0091
x1 = 0.162	1.11 ± 0.014

O=[N+]([O-])c1cccc(O)c1 + CCCCCOC(C)=O
Settings	viscosity [mPa·s]
[1], 298.15 K, 101 kPa, x1 = 0.5	1.449 ± 0.014

CCC(=O)c1ccccc1 + CNC(C)=O
[1], 308.15 K, 101 kPa
Settings	viscosity [mPa·s]
x1 = 0.06	2.972 ± 0.034
x1 = 0.1269	2.778 ± 0.032
x1 = 0.1862	2.61 ± 0.03
x1 = 0.2778	2.38 ± 0.028
x1 = 0.3654	2.19 ± 0.026
x1 = 0.4649	2.005 ± 0.024
x1 = 0.5709	1.828 ± 0.023
x1 = 0.6929	1.648 ± 0.021
x1 = 0.8315	1.485 ± 0.02
